Assay results taken from patent publication US11259516B2, “Method and apparatus for capsular delivery to plants” (priority 2017, dated 2022).

Assays:
[1] = test system: Eucalyptus saligna (Sydney Blue Gum); assay: Case 2: thinning of plantation grown Eucalyptus saligna with Di-Bak G, field trial; assay type: in vivo; conditions: at four months, on average a capsule every 13-14 cm of stem circumference
Procedure: (§1) Generally, one capsule was inserted per 10 cm stem circumference.
(§2) Tree health was assessed on a 0-4 scale, 0 being dead and 4 being healthy. Observations were made for evidence of ‘flashback’ in nearby untreated trees.
A trial was established on Brooklyn Station, Upper Tooloom, near Urbenville on 25 May 2017. GPS co-ordinates of the first treated plot were S28° 32.486′ E152° 24.782′. […] Trees were 6-10 m tall. Desirable trees were marked and the other trees were treated.
The trial consisted of four replicates with 15 trees per replicate. The number of capsules applied to each tree was dependent on tree circumference which was measured at chest height. The tree circumferences range was from 18 to 57 cm. Tree health was assessed at 4 months (25 Aug. 2017) and 7 months (20 Dec. 2017). Samples were collected for observation of dissolution of capsule and herbicide. Rainfall data for the closest recording station (Urbenville) was taken from the Bureau of Meteorology (BOM) internet site. No recent temperature data records were available for this site.

[2] = test system: Eucalyptus dunnii (Dunn's White Gum); assay: Case 3: dose rate effect of Di-Bak G on Eucalyptus dunnii, field trial; assay type: in vivo; conditions: for mortality: single capsule per tree
Procedure: as §1, §2
In this trial, one, two or three capsules of glyphosate were inserted into Eucalyptus dunnii trees irrespective of their circumference. The trial was established on Brooklyn station, Upper Tooloom, near Urbenville on 26 May 2017. GPS co-ordinates were S28° 32.488′ E152° 24.778′. The trees were arranged in a similar manner, and similar in age and size, to the E. saligna trees described in Case 2. Desirable trees were marked and the other trees were treated.
This trial consisted of one replicate of 15 trees for each treatment. […] Tree health was assessed at 4 months (25 Aug. 2017) and 7 months (20 Dec. 2017). […] At the 4 month assessment, samples were collected for observation of dissolution of capsule and herbicide. Rainfall data for the closest recording station (Urbenville) was taken from the Bureau of Meteorology (BOM) internet site. No recent temperature data records were available for this site.

[3] = test system: western white gum (Eucalyptus argophloia); assay: Example 3: glyphosate and glyphosate+imazapyr capsules, thinning trial in western white gum plantation
Procedure: The trial was established at the HQP plantation near Jandowae on 6 Feb. 2018. The trees were planted in rows 4 m apart at 1.5 m spacing. Trees were 6-10 m tall. Trees to be maintained were marked and the other trees were treated.
Four treatments were used, with capsules as follows:
Capsules and applicator used were as described in Example 2.
Herbicide capsules were applied to approx. 10 trees for each of the treatments. The number of capsules applied to each tree was independent of tree circumference which was measured at chest height. The tree circumferences range was from 12 to 25 centimetres. At 4 weeks, a small sample of trees were cut down with a chainsaw and cross-sections of stems containing the sites of insertion of the herbicide capsules removed. These stem pieces were returned to the laboratory and split open longitudinally through the insertion point. Tree health was assessed at 11 weeks (24 Apr. 2018) on a 0-4 scale with 0 being dead and 4 being healthy. Observations were made for evidence of flashback in untreated trees.

[4] = test system: Acacia spp (Wattles); design: key: X indicates that the given herbicide is suitable for controlling the given weed; conditions: cited from earlier work
[5] = test system: Acer negudo (Box elder); design: key: X indicates that the given herbicide is suitable for controlling the given weed; conditions: cited from earlier work
[6] = test system: Cascabela thevetia (Yellow oleander); design: key: X indicates that the given herbicide is suitable for controlling the given weed; conditions: cited from earlier work
[7] = test system: Cestrum parqui (Green cestrum); design: key: X indicates that the given herbicide is suitable for controlling the given weed; conditions: cited from earlier work
[8] = test system: Erythrina sykesii (Coral tree); design: key: X indicates that the given herbicide is suitable for controlling the given weed; conditions: cited from earlier work
[9] = test system: Koelreuteria elegans (Golden rain tree); design: key: X indicates that the given herbicide is suitable for controlling the given weed; conditions: cited from earlier work
[10] = test system: Lantana camara (Lantana); design: key: X indicates that the given herbicide is suitable for controlling the given weed; conditions: cited from earlier work
[11] = test system: Leptospermum spp. (Tea trees); design: key: X indicates that the given herbicide is suitable for controlling the given weed; conditions: cited from earlier work
[12] = test system: Ligustrum lucidum (Broad leaf privet); design: key: X indicates that the given herbicide is suitable for controlling the given weed; conditions: cited from earlier work
[13] = test system: Lycium ferocissium (African boxthom); design: key: X indicates that the given herbicide is suitable for controlling the given weed; conditions: cited from earlier work
[14] = test system: Miconia calvescens (Velvet tree); design: key: X indicates that the given herbicide is suitable for controlling the given weed; conditions: cited from earlier work
[15] = test system: Phoenix spp (Palms); design: key: X indicates that the given herbicide is suitable for controlling the given weed; conditions: cited from earlier work
[16] = test system: Pittosporum undulatum (Sweet pittosporum); design: key: X indicates that the given herbicide is suitable for controlling the given weed; conditions: cited from earlier work
[17] = test system: Populus spp (Poplars); design: key: X indicates that the given herbicide is suitable for controlling the given weed; conditions: cited from earlier work
[18] = test system: Ricinus communis (Castor oil plant); design: key: X indicates that the given herbicide is suitable for controlling the given weed; conditions: in vivo; cited from earlier work
[19] = test system: Salix species (Willows); design: key: X indicates that the given herbicide is suitable for controlling the given weed; conditions: cited from earlier work
[20] = test system: Schefflera actinophyla (Umbrella tree); design: key: X indicates that the given herbicide is suitable for controlling the given weed; conditions: cited from earlier work
[21] = test system: Solanum mauritianum (Wild tobacco tree); design: key: X indicates that the given herbicide is suitable for controlling the given weed; conditions: cited from earlier work
[22] = test system: Tabebuia aurea (Tabebuia); design: key: X indicates that the given herbicide is suitable for controlling the given weed; conditions: cited from earlier work
[23] = test system: Triadica sebifera (Chinese tallow tree); design: key: X indicates that the given herbicide is suitable for controlling the given weed; conditions: cited from earlier work

O=C(O)CNCP(=O)(O)O [Glyphosate]
mortality [1]: over 90%
trees dead ([2]; 2 capsules per tree, at 4 months): ~90%
treated trees killed ([2]; 2 capsules per tree, by 7 months): all had been killed
treated trees killed ([2]; 3 capsules per tree, by 4 months): killed all treated trees
mortality ([2]; at 4 months): ~70%
mortality ([2]; by 7 months): ~80%
flashback in the trees marked for retention ([3]; 11 week assessment): no flashback was observed
trees died (health rating 0-4 scale, 0 dead) ([3]; 11 weeks post treatment, 1 or 2 capsules per tree): majority of trees
suitability of herbicide for control of weed [4]: X
suitability of herbicide for control of weed [5]: X
suitability of herbicide for control of weed [6]: X
suitability of herbicide for control of weed [7]: X
suitability of herbicide for control of weed [8]: X
suitability of herbicide for control of weed [9]: X
suitability of herbicide for control of weed [10]: X
suitability of herbicide for control of weed [11]: X
suitability of herbicide for control of weed [12]: X
suitability of herbicide for control of weed [13]: X
suitability of herbicide for control of weed [14]: X
suitability of herbicide for control of weed [15]: X
suitability of herbicide for control of weed [16]: X
suitability of herbicide for control of weed [17]: X
suitability of herbicide for control of weed [18]: X
suitability of herbicide for control of weed [19]: X
suitability of herbicide for control of weed [20]: X
suitability of herbicide for control of weed [21]: X
suitability of herbicide for control of weed [22]: X
suitability of herbicide for control of weed [23]: X
